Measured values: patent publication US20230192705A1, “SHP2 INHIBITORS, COMPOSITIONS AND USES THEREOF” (Betta Pharmaceuticals Co., Ltd, priority 2020, published 2023)

Biological target: T1, hERG channel (Homo sapiens, UniProt Q12809)
T1 construct: expressed in transfected cells; host or cells: HEK-293
Test: Patch clamp assay to test the effect of compound on hERG channel
Assay type: cell-based
Conditions: manual patch clamp, HEK 293 cells expressed with hERG, concentration for half maximum effect
Protocol: 10 mL extracellular solution was used to dilute the stock solution, making the final concentrations of test compound were 0.3 μM, 1 μM, 3 μM, 10 μM and 30 μM.
The solubility of compound was visually observed.
The cell line was derived from HEK-293 cells, and grown in a humidified environment at 37° C. under 5% CO2, using the media formulation below. The cell line should not be allowed to exceed 80% confluence within the culture vessel to prevent contact inhibition causing senescence and should thus be passaged every 3/4 days using a seeding density of 2*10^6 cells per T175 flask. Cell lines were be pre-washed with phosphate buffered saline before harvesting with Trypsin/EDTA and seeded into new flasks.
HEK 293 cells expressed with hERG were plated on cover slips overnight with the cell density less than 50% of confluence. Cells used for electrophysiological study were transferred to a small cell bath (1 mL) mounted on the stage of an inverted microscope (Diaphot, Nikon) and were perfused with external solution containing (in mM) 130 NaCl, 4 KCl, 1.8 CaCl2), 1 MgCl2, 10 glucose and 10 HEPES (pH 7.4 with NaOH), the perfusion rate was 4 mL/min. The internal pipette solution contained (in mM) 130 KCl, 1 MgCl2, 5 ethylene glycol-bis(baminoethyl ether)-N,N,N8,N8-tetraacetic acid, 5 MgATP and 10 HEPES (pH 7.2 with KOH). An HEKA EPC-10 patch-clamp amplifier and PATCHMASTER acquisition program were used to record membrane currents (HEKA Instruments IncD-67466 Lambrecht/Pfalz Germany). All experiments were performed at room temperature (22-23° C.).
The Model P-97 micropipette puller (Sutter Instrument Company, One Digital Drive, Novato, Calif. 94949) was used to pull glass patch pipettes (BF150-86-10) in all experiments.
The experiments were initiated with a 2 min vehicle control period after forming a whole cell configuration with less 5% run-down in 5 min and the tail currents in the report were at least greater than 500 pA. After a 2 min vehicle control period, the perfusion was switched to the reservoir containing the compound at the first concentration. The same procedure was repeated 3-5 times so that each cell was exposed to 4-6 escalating concentrations of compound. The time courses for block and unblock of hERG during compounds exposure and washout were continuously recorded.
The peak tail of hERG was generated by applying 2-sec depolarizing every 12 sec steps from a holding potential of −80 mV, the peak of tail currents were measured at a 5-sec repolarizing pulse at −50 mV.
hERG peak tail currents were directly measured from a 5 sec repolarization pulse at −50 mV. The fraction of control current was plotted as a function of logarithm of compound concentration. To determine the concentration of compound for halfmaximum effect, the concentration-response curve was fitted by Hill equation as shown follow.
where Y is the observed value, Bottom is the lowest observed value (0), Top is the highest observed value (1), and the Hillcoefficient gives the largest absolute value of the slope of the curve.
Data were analyzed by a combination of PATCHMASTER ((HEKA Instruments IncD-67466 Lambrecht/Pfalz Germany) and Origin (OriginLab Corporation, Northampton, Mass.) software programs.
Data were expressed as mean±SEM.

T1 sequence (Q12809 whole entry): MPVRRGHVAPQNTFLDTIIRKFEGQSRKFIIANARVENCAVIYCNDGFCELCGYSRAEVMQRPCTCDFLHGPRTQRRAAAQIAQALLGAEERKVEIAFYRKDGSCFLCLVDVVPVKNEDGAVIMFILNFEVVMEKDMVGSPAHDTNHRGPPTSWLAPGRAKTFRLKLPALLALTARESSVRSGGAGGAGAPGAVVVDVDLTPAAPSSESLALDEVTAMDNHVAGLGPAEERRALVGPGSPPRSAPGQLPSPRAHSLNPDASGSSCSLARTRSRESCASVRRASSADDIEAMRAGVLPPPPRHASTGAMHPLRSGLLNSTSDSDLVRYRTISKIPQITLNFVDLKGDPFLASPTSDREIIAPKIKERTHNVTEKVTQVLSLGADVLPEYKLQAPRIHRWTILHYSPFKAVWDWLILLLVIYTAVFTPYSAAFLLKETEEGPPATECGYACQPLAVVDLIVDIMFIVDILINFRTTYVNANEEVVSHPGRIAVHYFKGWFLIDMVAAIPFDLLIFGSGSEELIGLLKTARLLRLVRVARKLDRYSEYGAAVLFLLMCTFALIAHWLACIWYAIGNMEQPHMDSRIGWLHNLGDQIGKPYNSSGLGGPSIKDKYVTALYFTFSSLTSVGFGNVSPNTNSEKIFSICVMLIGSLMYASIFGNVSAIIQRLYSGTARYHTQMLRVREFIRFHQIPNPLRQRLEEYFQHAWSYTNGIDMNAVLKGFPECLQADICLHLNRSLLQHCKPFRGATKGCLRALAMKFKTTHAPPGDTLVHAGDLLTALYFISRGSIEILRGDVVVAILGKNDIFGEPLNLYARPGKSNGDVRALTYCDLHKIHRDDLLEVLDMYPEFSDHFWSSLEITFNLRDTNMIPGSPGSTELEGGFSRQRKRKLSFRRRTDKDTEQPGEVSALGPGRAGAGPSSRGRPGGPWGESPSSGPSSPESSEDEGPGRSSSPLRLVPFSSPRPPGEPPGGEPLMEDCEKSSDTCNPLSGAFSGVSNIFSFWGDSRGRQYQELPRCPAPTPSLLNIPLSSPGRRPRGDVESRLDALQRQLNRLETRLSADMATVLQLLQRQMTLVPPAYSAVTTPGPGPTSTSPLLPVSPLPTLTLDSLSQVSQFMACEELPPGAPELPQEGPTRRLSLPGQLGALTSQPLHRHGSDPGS

Compound	IC50 [µM]
N[C@@H]1c2ccccc2CC12CCN(c1nc3[nH]nc(C4(c5cccs5)CC4)c3c(=O)[nH]1)CC2 [Example 24, (S)-6-(1-amino-1,3-dihydrospiro[indene-2,4′-piperidin]-1′-yl)-3-(1-(thiophen-2-yl)cyclopropyl)-1,5-dihydro-4H-pyrazolo[3,4-d]pyrimidin-4-one]	14.8
N[C@@H]1c2ccccc2CC12CCN(c1nc3[nH]nc(C4(c5csnn5)CC4)c3c(=O)[nH]1)CC2 [Example 240, (S)-3-(1-(1,2,3-thiadiazol-4-yl)cyclopropyl)-6-(1-amino-1,3-dihydrospiro[indene-2,4′-piperidin]-1′-yl)-1,5-dihydro-4H-pyrazolo[3,4-d]pyrimidin-4-one]	17.1
Cn1c(N2CCC3(CC2)Cc2ccccc2[C@H]3N)nc2[nH]nc(C3(c4ccccc4)CC3)c2c1=O [Example 1]	1.76
N[C@@H]1c2ccccc2CC12CCN(c1nc3[nH]nc(C4(c5ccc6c(c5)OCO6)CC4)c3c(=O)[nH]1)CC2 [Example 34, (S)-6-(1-amino-1,3-dihydrospiro[indene-2,4′-piperidin]-1′-yl)-3-(1-(benzo[d][1,3]dioxol-5-yl)cyclopropyl)-1,5-dihydro-4H-pyrazolo[3,4-d]pyrimidin-4-one]	6.9
Nc1ccc(C2(c3n[nH]c4nc(N5CCC6(CC5)Cc5ccccc5[C@H]6N)[nH]c(=O)c34)CC2)cc1 [Example 230, (S)-6-(1-amino-1,3-dihydrospiro[indene-2,4′-piperidin]-1′-yl)-3-(1-(4-aminophenyl)cyclopropyl)-1,5-dihydro-4H-pyrazolo[3,4-d]pyrimidin-4-one]	> 30
N[C@@H]1c2ccccc2CC12CCN(c1nc3[nH]nc(C4(c5ccc(O)cc5)CC4)c3c(=O)[nH]1)CC2 [Example 234, (S)-6-(1-amino-1,3-dihydrospiro[indene-2,4′-piperidin]-1′-yl)-3-(1-(4-hydroxyphenyl)cyclopropyl)-1,5-dihydro-4H-pyrazolo[3,4-d]pyrimidin-4-one]	> 30
N[C@@H]1c2ccccc2CC12CCN(c1nc3[nH]nc(C4(c5ccccc5)CC4(F)F)c3c(=O)[nH]1)CC2 (stereo partly drawn) [Example 9, 6-((S)-1-amino-1,3-dihydrospiro[indene-2,4′-piperidin]-1′-yl)-3-(2,2-difluoro-1-phenylcyclopropyl)-1,5-dihydro-4H-pyrazolo[3,4-d]pyrimidin-4-one]	10.4
N[C@@H]1c2ccccc2CC12CCN(c1nc3[nH]nc(C4(c5ccccc5)COC4)c3c(=O)[nH]1)CC2 [Example 96, (S)-6-(1-amino-1,3-dihydrospiro[indene-2,4′-piperidin]-1′-yl)-3-(3-phenyloxetan-3-yl)-1,5-dihydro-4H-pyrazolo[3,4-d]pyrimidin-4-one]	> 30
N[C@@H]1c2ccccc2CC12CCN(c1nc3[nH]nc(C4(c5ccccc5)CC4)c3c(=O)[nH]1)CC2 [Example 33]	9.5
N#Cc1ccc(C2(c3n[nH]c4nc(N5CCC6(CC5)Cc5ccccc5[C@H]6N)[nH]c(=O)c34)CC2)cc1 [Example 237, (S)-4-(1-(6-(1-amino-1,3-dihydrospiro[indene-2,4′-piperidin]-1′-yl)-4-oxo-4,5-dihydro-1H-pyrazolo[3,4-d]pyrimidin-3-yl)cyclopropyl)benzonitrile]	7.9
